From US20110039333A1, “DEFINED CONDITIONS FOR HUMAN EMBRYONIC STEM CELL CULTURE AND PASSAGE” (UNIVERSITY OF SOUTHERN CALIFORNIA, priority 2009, published 2011)

Columns and labels:
[1] = biological target: T1, DYRK4 (Homo sapiens, UniProt Q9NR20); assay: ID-8 pull-down, western blotting with DYRK family antibodies; format: binding; details: western blotting of precipitated proteins
T1 construct: endogenous in cells
T1 sequence (Q9NR20 1-520): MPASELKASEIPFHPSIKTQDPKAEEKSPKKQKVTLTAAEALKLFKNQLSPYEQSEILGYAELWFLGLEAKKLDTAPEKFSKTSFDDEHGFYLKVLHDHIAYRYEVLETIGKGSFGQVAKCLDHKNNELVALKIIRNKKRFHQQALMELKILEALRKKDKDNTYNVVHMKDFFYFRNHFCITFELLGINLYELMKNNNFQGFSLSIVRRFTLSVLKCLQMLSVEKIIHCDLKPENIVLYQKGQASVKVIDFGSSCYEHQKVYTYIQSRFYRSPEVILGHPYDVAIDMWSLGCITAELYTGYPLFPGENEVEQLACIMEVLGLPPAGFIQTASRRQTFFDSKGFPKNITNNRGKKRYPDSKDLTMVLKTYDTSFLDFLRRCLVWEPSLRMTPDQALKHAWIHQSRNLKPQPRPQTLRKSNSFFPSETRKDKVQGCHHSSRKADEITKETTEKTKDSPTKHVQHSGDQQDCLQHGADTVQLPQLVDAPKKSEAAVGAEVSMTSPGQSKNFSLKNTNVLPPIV
Experimental: The cells were washed twice with 5 mL of ice-old PBS and scraped using 1 mL of PBS containing protease inhibitor cocktail (Calbiochem 539137). The cells were collected by centrifugation and the cell pellet was frozen and stocked with liquid nitrogen. Total 2 g of cell pellet was thawed on ice and then suspended in 20 mL of chilled M-Per (Pierce 78501) buffer containing 1 mM DTT and the protease inhibitor cocktail. The cell suspension was mixed and lysed on a nutator (BD Diagnostics) for 30 minutes at 4° C. The lysate was then centrifuged at 10,000 rpm for 30 minutes at 4° C., and the supernatant was divided into two equal aliquots in 50 mL centrifuge tubes. […]
After pre-treatment with free competitor ID-8 or DMSO control, the streptayidin-sepharose bound with biotinylated ID-8 was applied on the lysates. […] The specific bands lost by competitor free ID-8 was analyzed by LC/MS (LTQ-XL, Thermo Scientific).
The elution was also analyzed by or western blotting with specific antibodies against DYRK1a (Cell Signaling 2771), DYRK2 (Abeam ab37912), DYRK3 (Santa Cruz sc-66868), DYRK4 (Abeam ab37911), or HIP2K (Santa Cruz sc-100383).
ID-8 (FIG. 4A) can enhance β-catenin/CBP-mediated transcription, however, its direct molecular target(s) remained unidentified. […] To confirm this, the inventors designed miRNA to target the DYRK family and evaluated them after transfection by immunoblotting (FIG. 4D-E). […]

[2] = system: hESC; assay: Xeno-free, feeder-free hESC culture (minimal medium development); format: cell-based, human; details: minimal medium (DMEM/F-12, bFGF, Wnt3a, ITS) without ID-8
Experimental: For xeno-free, feeder-free culture, the cells were passaged into 2 μg/cm^2 human Fibronectin (Sigma), 10-20 μg/cm^2 human Laminin (Sigma) and 10 μg/cm^2 human Vitronectin (Invitrogen)-coated culture dishes and cultured in DMEM/F-12 supplement with L-glutamine, a non-essential amino acid, ITS, 20-25 ng/ml Wnt3a and 500 nM ID-8, and with or without 4 ng/ml FGF2. The culture medium was changed daily. Some of colonies became detached from the edge region 5 to 7 days after culturing, and then cells were treated with 0.5 mg/ml GRGDTP peptides (AnaSpec) or 1 μg/ml Echistatin (Sigma) and incubated at 37° C. for 15-45 minutes until almost all of the colony starts to detach from the edge region. The colonies were detached and partially dissociated into clumps by gentle pipetting, and then the clumps were washed with culture medium, collected by centrifugation and seeded on new dishes as 1 to 2 split ratio.
The development of a xeno-free, feeder-free hESC culture system using ID-8 and Wnt activation was investigated. After extensive investigation, the inventors determined that the minimal media required to maintain hESC proliferation and pluripotency consisted of DMEM/F-12 with bFGF (4 ng/ml), Wnt3a (25 ng/ml), ID-8 (0.5 μM) and Insulin-Transferrin-Selenium (ITS). […] The inventors next sought to replace the Wnt ligand with several small molecule GSK-3 inhibitors, BIO (11), CHIR99021 (22) and Kenpaullone (23) in ID-8 containing medium with or without bFGF. […] However, in contrast to Wnt ligand containing medium, hESCs became unstable after few passages, subsequently stabilized and maintained pluripotent cores were surrounded with spontaneously differentiated cells (FIG. 5). Under these conditions, manually selection of undifferentiated hESC colonies from the surrounding cells was required at every passage to maintain pluripotent cultures.
Initially, cells were maintained on Matrigel, a complex animal derived ECM. However, it would be advantageous to use a defined xeno-component-free ECM. […] Because of the extremely low level of protein in these cultures (i.e. no albumin and matrigel), the hESCs are extremely sensitive to damage caused by the dissociation enzymes normally used for passaging. […] To develop a compatible passaging process, the inventors investigated several integrin antagonists.

COc1ccc(-n2c(C)c([N+](=O)[O-])c3ccc(O)cc32)cc1 [ID-8]
DYRK4 in proteins precipitated with biotinylated ID-8 [1]: identified not only DYRK2 but also DYRK4 | maintenance of hESC colonies [2]: no colonies were maintained
